Results reported in patent US10617748B2, “Immunogenic control of tumours and tumour cells” (LIFE SCIENCES RESEARCH PARTNERS VZW, priority 2008, dated 2020).
Peptide text beside a SMILES is read from it.

Assays:
[1] = system: APCs presenting the natural or modified survivin T-cell epitope; assay: Cytotoxic CD4+ T cells elicited by in vivo immunisation; apoptosis (annexin V, Facs) of peptide-loaded APC in co-culture, survivin epitope; set-up: species or system C57BI/6 mice; settings: 25 μg peptide, 3 footpath injections in CFA/IFA; splenic CD4+ T cells co-cultured 24 h with APC loaded with SEQ ID NO:5 or SEQ ID NO:6 (5 μg/mL)
Method: The sequence of the peptide corresponds to amino acids 61 to 69 of survivin, namely: FKELEGWEP (SEQ ID NO:5).
(§1) Finally, cells are analysed by Facs analysis.

[2] = system: APCs presenting the natural or modified MAGE-3 T-cell epitope; assay: Cytotoxic CD4+ T cells elicited by in vivo immunisation; apoptosis (annexin V, Facs) of peptide-loaded APC in co-culture, MAGE-3 epitope; set-up: species or system C57BI/6 mice; settings: 25 μg peptide, 3 footpath injections in CFA/IFA; splenic CD4+ T cells co-cultured 24 h with APC loaded with SEQ ID NO:1 or SEQ ID NO:2 (5 μg/mL)
Method: The sequence of the (natural) T-cell epitope corresponds to amino acids 258 to 266 of MAGE-3, namely: YRQVPGSDP (SEQ ID NO:1).
as §1

[3] = system: APCs presenting the natural or modified Epstein-Barr LMP2 T-cell epitope; assay: Cytotoxic CD4+ T cells elicited by in vivo immunisation; apoptosis (annexin V, Facs) of peptide-loaded APC in co-culture, Epstein-Barr LMP2 epitope; set-up: species or system BALB/c mice; settings: 25 μg peptide, 3 footpath injections in CFA/IFA; splenic CD4+ T cells co-cultured 24 h with APC loaded with SEQ ID NO:7 or SEQ ID NO:8 (5 μg/mL)
Method: The sequence of the peptide corresponds to amino acids 167 to 175 of LMP2, namely: VASSYAAAQ (SEQ ID NO:7).
Spleen adherent cells prepared from naïve BALB/c mice are used as antigen-presenting cells (APC).
as §1

CC(C)C[C@H](NC(=O)[C@H](CCC(=O)O)NC(=O)[C@H](CCCCN)NC(=O)[C@H](Cc1ccccc1)NC(=O)[C@H](CS)NC(=O)CNC(=O)[C@H](Cc1c[nH]cn1)NC(=O)[C@@H](N)CS)C(=O)N[C@@H](CCC(=O)O)C(=O)NCC(=O)N[C@@H](Cc1c[nH]c2ccccc12)C(=O)N[C@@H](CCC(=O)O)C(=O)N1CCC[C@H]1C(=O)O [SEQ ID NO:6, CHGCFKELEGWEP] (H-CHGCFKELEGWEP-OH)
elicitation of CD4+ T cells with cytotoxic properties towards APCs [1]: can elicit CD4+ T cells with cytotoxic properties

CC(C)[C@H](NC(=O)[C@H](CCC(N)=O)NC(=O)[C@H](CCCNC(=N)N)NC(=O)[C@H](Cc1ccc(O)cc1)NC(=O)[C@H](CS)NC(=O)CNC(=O)[C@H](Cc1c[nH]cn1)NC(=O)[C@@H](N)CS)C(=O)N1CCC[C@H]1C(=O)NCC(=O)N[C@@H](CO)C(=O)N[C@@H](CC(=O)O)C(=O)N1CCC[C@H]1C(=O)O [SEQ ID NO:2, CHGCYRQVPGSDP] (H-CHGCYRQVPGSDP-OH)
elicitation of CD4+ T cells with cytotoxic properties towards APCs [2]: can elicit CD4+ T cells with cytotoxic properties

CC(C)[C@H](NC(=O)[C@H](CS)NC(=O)CNC(=O)[C@H](Cc1c[nH]cn1)NC(=O)[C@@H](N)CS)C(=O)N[C@@H](C)C(=O)N[C@@H](CO)C(=O)N[C@@H](CO)C(=O)N[C@@H](Cc1ccc(O)cc1)C(=O)N[C@@H](C)C(=O)N[C@@H](C)C(=O)N[C@@H](C)C(=O)N[C@@H](CCC(N)=O)C(=O)O [SEQ ID NO:8, CHGCVASSYAAAQ] (H-CHGCVASSYAAAQ-OH)
elicitation of CD4+ T cells with cytotoxic properties towards APCs [3]: can elicit CD4+ T cells with cytotoxic properties
